In brackets after ≈: the same amount, converted by molar mass.
Key:
[1] = test system: human platelets in platelet-rich-plasma; assay: ADP-induced aggregation of human platelets in platelet-rich plasma (Born aggregometer method as modified by Mustard et al.); format: cell-based
Method: Platelet-rich plasma was prepared from human blood drain into syringes containing 1/10 volume of 3.8% sodium citrate. The blood was then subjected to centrifugation for about 10 minutes at 140 g and then the platelet-rich plasma decanted. The test compound was dissolved in DMSO (5 μL) and added to PRP (0.9 mL) 3 minutes prior to the addition of ADP (5.86 μM). The aggregometer method of Born, as modified by Mustard et al., was employed to measure platelet aggregation. Vehicle control trials were performed and compared with the extent of aggregation induced in PRP containing various concentrations of the test compounds. Dose-response curves were thus obtained and IC50 values determined.

human PRP = details: cited from earlier work
platelet aggregation = details: prior art description; cited from earlier work

Compound | potency relative to the compound of Formula (ii) (inhibition of ADP-induced platelet aggregation) [1] | IC50 (human PRP vs ADP) (human PRP) | inhibition of platelet aggregation (in words) (platelet aggregation)
CCOC(=O)N(Cc1nc(-c2ccccc2)c(-c2ccccc2)o1)c1cccc(OCC(=O)O)c1 [Compound 13d, [3-[[(4,5-diphenyl-2-oxazolyl)methyl](ethoxycarbonyl)amino]phenoxy]acetic acid] | four times as potent |  | 
O=C(O)CCCCCCCOc1nc(-c2ccccc2)c(-c2ccccc2)n1-c1ccccc1 [Octimibate] |  | 1 µg/mL (≈ 2.2 µM) | broad spectrum inhibitor of platelet aggregation
O=C(O)CCCCCCCOc1nc(-c2ccccc2)c(-c2ccccc2)n1-c1ccccc1 [octimibate sodium] |  |  | possessing anti-aggregatory activity

— US5362879A, “4-5-diphenyloxazole derivatives as inhibitors of blood platelet aggregation” (Bristol-Myers Squibb Company, priority 1993, dated 1994)
